# Ends that are not written are not given here.
# Tested on: MCMV
# Assay: Viral replication in DC subsets (real-time PCR of MCMV gB transcripts)
# Type: cell-based, BALB/c mice
# Conditions: 50 μg/ml for 2 h before infection, 48 h
# Description: (FIG. 3a) CD11b+DC or pDC were generated from bone marrow of BALB/c mice, infected with MCMV and assessed for morphology by light microscopy and viral replication by real-time PCR of MCMV gB transcripts expression (both at 48 h) or for IRF7 nuclear expression by immunobloting with anti-IRF7 (2 h later). Cells were exposed (+) or not (−) to 50 μg/ml Thymosin alpha 1 for 2 h at 37° C. before infection. − represents uninfected cells. The results shown represent one representative experiment out of 3.
# DC subset generation. DC were obtained by culturing 10^6/ml BALB/c bone marrow cells in Iscove's modified medium, containing 10% filtered bovine serum, 50 μM 2-mercaptoethanol, sodium pyruvate (1 mM), 2 mM L-glutamine, HEPES (10 mM), and 50 μg/ml gentamycin in the presence of 150 U/ml mouse rGM-CSF (Sigma) and 75 U/ml rIL-4 (R&D Systems) for 7 days to obtain CD11b+DC or 200 ng/ml FLT3-L (Immunex Corporation, Seattle, Wash.) for 9 days to obtain pDC. […]
# Inhibition of viral replication. […] Infectivity was measured 48 h later.
# Real time RT-PCR for quantification of MCMV mRNA. […]
substance,measurement,setting,value
"Ac-Ser-Asp-Ala-Ala-Val-Asp-Thr-Ser-Ser-Glu -Ile-Thr-Thr-Lys-Asp-Leu-Lys-Glu-Lys-Lys-Glu-Val-Glu-Glu-Ala-Glu-Asn-O (Ac-SDAAVDTSSEITTKDLKEKKEVEEAEN) [Thymosin alpha 1, acidic peptide present in thymus extract with immunoregulatory properties]",viral replication,CD11b+DC,not affected
same,viral replication,pDC,actually promoted

# From US8337828B2, “Use of thymosin alpha 1, alone or in combination with PTX3 or ganciclovir, for the treatment of cytomegalovirus infection” (priority 2006, dated 2012)
